According to patent US8735384B2, “Amino heteroaryl compounds as beta-secretase modulators and methods of use” (Amgen Inc., priority 2010, dated 2014):
Where two headings read alike, the source gives them in different places.

Experiments:
BACE1 = BACE1 (Homo sapiens, UniProt P56817); experiment: In vitro enzymatic BACE FRET assay; format: biochemical; details: beta secretase enzyme 0.2 nM, FRET substrate 50 nM, pH 4.2
Method in brief: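 Beta-secretase (0.2 nM) was pre-incubated 1 h with serially diluted inhibitor in 0.05 M acetate pH 4.2, 10% DMSO, 100 uM genapol. Then 50 nM quenched peptide FRET substrate was added for 1 h. The reaction was stopped with Tris to neutral pH and fluorescence read ([…]).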

[1] = tested on: Aβ40 in conditioned medium of cells stably expressing Amyloid Precursor Protein (APP); experiment: In vitro BACE cell-based assay (HEK cell assay), Aβ40 sandwich ELISA; details: inhibition of Aβ40, 24 h incubation, read-out: HEK cell assay (IC50 class)
Method in brief: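 APP-stably expressing cells (40K/well) grown 24 h, then treated 24 h with 10-point doses from 100 μM or 10 μM top (0.1% DMSO). Secreted Aβ40 quantified by sandwich ELISA (pAb40 capture, biotinylated 6E10 detection, europium time-resolved fluorescence); IC50 from percent inhibition versus concentration.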

[2] = read-out: BACE1 FRET assay (IC50 class)

BACE1, sequence (P56817 46-501, species assumed): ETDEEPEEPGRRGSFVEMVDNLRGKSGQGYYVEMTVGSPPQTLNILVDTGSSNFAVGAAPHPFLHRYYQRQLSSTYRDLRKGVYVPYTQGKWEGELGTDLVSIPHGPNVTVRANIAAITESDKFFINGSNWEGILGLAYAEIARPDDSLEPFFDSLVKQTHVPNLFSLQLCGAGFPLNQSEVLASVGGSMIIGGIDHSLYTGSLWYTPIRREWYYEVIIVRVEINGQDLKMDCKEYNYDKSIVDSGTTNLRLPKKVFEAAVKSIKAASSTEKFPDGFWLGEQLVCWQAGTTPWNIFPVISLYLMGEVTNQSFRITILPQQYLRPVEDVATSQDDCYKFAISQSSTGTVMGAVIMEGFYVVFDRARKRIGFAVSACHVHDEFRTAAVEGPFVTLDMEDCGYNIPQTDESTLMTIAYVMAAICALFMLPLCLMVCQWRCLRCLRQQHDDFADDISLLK

Nc1nc2ccc(-c3ccccc3CC3CCOCC3)cc2cc1N1CCOCC1 [Example 13, 3-morpholino-6-(2-((tetrahydro-2H-pyran-4-yl)methyl)phenyl)quinolin-2-amine]
IC50 (BACE1; [2]): 100 to 500 nM
IC50 ([1]; Homo sapiens, HEK293, 24 h): 1010 to 5000 nM

Cc1cccc(C(=O)N2[C@H](C)CCC[C@@H]2C)c1-c1ccc2nc(N)c(N3CCOCC3)cc2c1 [Example 84, (2-(2-amino-3-morpholinoquinolin-6-yl)-3-methylphenyl)((2S,6R)-2,6-dimethylpiperidin-1-yl)methanone]
IC50 (BACE1; [2]): < 100 nM
IC50 ([1]; Homo sapiens, HEK293, 24 h): 501 to 1000 nM

Cc1cccc(C(=O)N2CCCC2)c1-c1ccc2nc(N)c(N3CCCCC3)cc2c1 [Example 61, (2-(2-amino-3-(piperidin-1-yl)quinolin-6-yl)-3-methylphenyl)(pyrrolidin-1-yl)methanone]
IC50 (BACE1; [2]): 501 to 1000 nM
IC50 ([1]; Homo sapiens, HEK293, 24 h): 1010 to 5000 nM

Cc1cccc(N2CCOCC2=O)c1-c1ccc2nc(N)c(N3CCOCC3)cc2c1 [Example 48, 4-(2-(2-amino-3-morpholinoquinolin-6-yl)-3-methylphenyl)morpholin-3-one]
IC50 (BACE1; [2]): 501 to 1000 nM
IC50 ([1]; Homo sapiens, HEK293, 24 h): 1010 to 5000 nM

CCOC(=O)c1cccc(C)c1-c1ccc2nc(N)c(N3CCOCC3)cc2c1 [Example 62, ethyl 2-(2-amino-3-morpholinoquinolin-6-yl)-3-methylbenzoate]
IC50 (BACE1; [2]): 100 to 500 nM
IC50 ([1]; Homo sapiens, HEK293, 24 h): 1010 to 5000 nM

CCOC1CCCN(C(=O)c2cccc(C)c2-c2ccc3nc(N)c(N4CCOCC4)cc3c2)C1 (stereo not drawn) [Example 85, (2-(2-amino-3-morpholinoquinolin-6-yl)-3-methylphenyl)(3-ethoxypiperidin-1-yl)methanone]
IC50 (BACE1; [2]): 100 to 500 nM
IC50 ([1]; Homo sapiens, HEK293, 24 h): 1010 to 5000 nM

CC(C)(C)CCc1cccc(C(=O)N2CC[C@H](F)C2)c1-c1ccc2nc(N)c(N3CCOCC3)cc2c1 [Example 166, (S)-(2-(2-amino-3-morpholinoquinolin-6-yl)-3-(3,3-dimethylbutyl)phenyl)(3-fluoropyrrolidin-1-yl)methanone]
IC50 (BACE1; [2]): < 100 nM
IC50 ([1]; Homo sapiens, HEK293, 24 h): < 100 nM

CCCN(CC1CC1)C(=O)c1cccc(C)c1-c1ccc2nc(N)c(N3CCOCC3)cc2c1 [Example 111, 2-(2-amino-3-morpholinoquinolin-6-yl)-N-(cyclopropylmethyl)-3-methyl-N-propylbenzamide]
IC50 (BACE1; read-out: BACE1 FRET assay (IC50, numeric)): 1540 nM
IC50 ([1]; Homo sapiens, HEK293, 24 h): > 5000 nM

Cc1cccc(C(=O)N2CCCC2)c1-c1ccc2nc(N)c(N3CCOC(C)(C)C3)cc2c1 [Example 215, (2-(2-amino-3-(2,2-dimethylmorpholino)quinolin-6-yl)-3-methylphenyl)(pyrrolidin-1-yl)methanone]
IC50 (BACE1; [2]): < 100 nM
IC50 ([1]; Homo sapiens, HEK293, 24 h): 501 to 1000 nM

CCCC1CCCCN1C(=O)c1cccc(C)c1-c1ccc2nc(N)c(N3CCOCC3)cc2c1 (stereo not drawn) [Example 79, (2-(2-amino-3-morpholinoquinolin-6-yl)-3-methylphenyl)(2-propylpiperidin-1-yl)methanone]
IC50 (BACE1; [2]): 100 to 500 nM
IC50 ([1]; Homo sapiens, HEK293, 24 h): 1010 to 5000 nM

CC(C)(C)CCc1cccc(C(=O)N2CC[C@@H](F)C2)c1-c1ccc2nc(N)c(N3CCOCC3)cc2c1 [Example 47, (R)-(2-(2-amino-3-morpholinoquinolin-6-yl)-3-(3,3-dimethylbutyl)phenyl)(3-fluoropyrrolidin-1-yl)methanone]
IC50 (BACE1; [2]): < 100 nM
IC50 ([1]; Homo sapiens, HEK293, 24 h): < 100 nM

CCCN(C)C(=O)c1cccc(C)c1-c1ccc2nc(N)c(N3CCOCC3)cc2c1 [Example 110, 2-(2-amino-3-morpholinoquinolin-6-yl)-N,3-dimethyl-N-propylbenzamide]
IC50 (BACE1; [2]): 100 to 500 nM
IC50 ([1]; Homo sapiens, HEK293, 24 h): 1010 to 5000 nM

CCC1CN(c2cc3cc(-c4c(C)cccc4C(=O)N4CCCC4)ccc3nc2N)CCO1 (stereo not drawn) [Example 21, (2-(2-amino-3-(2-ethylmorpholino)quinolin-6-yl)-3-methylphenyl)(pyrrolidin-1-yl)methanone]
IC50 (BACE1; [2]): < 100 nM
IC50 ([1]; Homo sapiens, HEK293, 24 h): 1010 to 5000 nM

Cc1cccc(/C(=N/O)c2ccccc2)c1-c1ccc2nc(N)c(N3CCOCC3)cc2c1 [Example 190, (E)-(2-(2-amino-3-morpholinoquinolin-6-yl)-3-methylphenyl)(phenyl)methanone oxime]
IC50 (BACE1; [2]): < 100 nM
IC50 [1]: 100 to 500 nM

Cc1ccc(C(=O)N2CCCC2)c(-c2ccc3nc(N)c(N4CCOCC4)cc3c2)c1 [Example 150, (2-(2-amino-3-morpholinoquinolin-6-yl)-4-methylphenyl)(pyrrolidin-1-yl)methanone]
IC50 (BACE1; [2]): < 100 nM
IC50 ([1]; Homo sapiens, HEK293, 24 h): 100 to 500 nM

Cc1cccc(C(=O)N(C)CC(C)(C)C)c1-c1ccc2nc(N)c(N3CCOCC3)cc2c1 [Example 41, 2-(2-amino-3-morpholinoquinolin-6-yl)-N,3-dimethyl-N-neopentylbenzamide]
IC50 (BACE1; [2]): < 100 nM
IC50 ([1]; Homo sapiens, HEK293, 24 h): 501 to 1000 nM

CCC1CCCN1C(=O)c1cccc(C)c1-c1ccc2nc(N)c(N3CCOCC3)cc2c1 (stereo not drawn) [Example 65, (2-(2-amino-3-morpholinoquinolin-6-yl)-3-methylphenyl)(2-ethylpyrrolidin-1-yl)methanone]
IC50 (BACE1; [2]): < 100 nM
IC50 ([1]; Homo sapiens, HEK293, 24 h): 501 to 1000 nM

Cc1cccc(C(=O)N2CCCC2)c1-c1ccc2nc(N)c(C3=CCCC3)cc2c1 [Example 57, (2-(2-amino-3-cyclopentenylquinolin-6-yl)-3-methylphenyl)(pyrrolidin-1-yl)methanone]
IC50 (BACE1; [2]): 100 to 500 nM
IC50 ([1]; Homo sapiens, HEK293, 24 h): 1010 to 5000 nM

CCCC1CCN(C(=O)c2cccc(C)c2-c2ccc3nc(N)c(N4CCOCC4)cc3c2)CC1 [Example 78, (2-(2-amino-3-morpholinoquinolin-6-yl)-3-methylphenyl)(4-propylpiperidin-1-yl)methanone]
IC50 (BACE1; [2]): < 100 nM
IC50 ([1]; Homo sapiens, HEK293, 24 h): > 5000 nM

Cc1cc(F)cc(C(=O)N2CC[C@@H](F)C2)c1-c1ccc2nc(N)c(N3CCOCC3)cc2c1 [Example 130, (R)-(2-(2-amino-3-morpholinoquinolin-6-yl)-5-fluoro-3-methylphenyl)(3-fluoropyrrolidin-1-yl)methanone]
IC50 (BACE1; [2]): < 100 nM
IC50 ([1]; Homo sapiens, HEK293, 24 h): 100 to 500 nM

COc1cccc(Cc2cccc(C)c2-c2ccc3nc(N)c(N4CCOCC4)cc3c2)c1 [Example 203, 6-(2-(3-methoxybenzyl)-6-methylphenyl)-3-morpholinoquinolin-2-amine]
IC50 (BACE1; [2]): < 100 nM
IC50 ([1]; Homo sapiens, HEK293, 24 h): > 5000 nM

Cc1cccc(-c2ncc3ccccn23)c1-c1ccc2nc(N)c(N3CCOCC3)cc2c1 [Example 30, 6-(2-(imidazo[1,5-a]pyridin-3-yl)-6-methylphenyl)-3-morpholinoquinolin-2-amine]
IC50 (BACE1; [2]): 100 to 500 nM
IC50 ([1]; Homo sapiens, HEK293, 24 h): 1010 to 5000 nM

Nc1nc2ccc(-c3ccccc3Cl)cc2cc1N1CCOCC1 [Example 219, 6-(2-chlorophenyl)-3-morpholinoquinolin-2-amine]
IC50 (BACE1; [2]): 501 to 1000 nM
IC50 ([1]; Homo sapiens, HEK293, 24 h): > 5000 nM

Cc1cccc(C(=O)N2CC=CC2)c1-c1ccc2nc(N)c(N3CCOCC3)cc2c1 [Example 90, (2-(2-amino-3-morpholinoquinolin-6-yl)-3-methylphenyl)(2,5-dihydro-1H-pyrrol-1-yl)methanone]
IC50 (BACE1; [2]): < 100 nM
IC50 ([1]; Homo sapiens, HEK293, 24 h): 501 to 1000 nM

Cc1ccc(N(C)C(=O)c2cccc(C)c2-c2ccc3nc(N)c(N4CCOCC4)cc3c2)cc1 [Example 131, 2-(2-amino-3-morpholinoquinolin-6-yl)-N,3-dimethyl-N-p-tolylbenzamide]
IC50 (BACE1; [2]): < 100 nM
IC50 ([1]; Homo sapiens, HEK293, 24 h): 1010 to 5000 nM

CCC1CCCCN1C(=O)c1cccc(C)c1-c1ccc2nc(N)c(N3CCOCC3)cc2c1 (stereo not drawn) [Example 81, (2-(2-amino-3-morpholinoquinolin-6-yl)-3-methylphenyl)(2-ethylpiperidin-1-yl)methanone]
IC50 (BACE1; [2]): < 100 nM
IC50 ([1]; Homo sapiens, HEK293, 24 h): 1010 to 5000 nM

COc1ccccc1C(=O)c1cccc(C)c1-c1ccc2nc(N)c(C3CCOCC3)cc2c1 [Example 212, (2-(2-amino-3-(tetrahydro-2H-pyran-4-yl)quinolin-6-yl)-3-methylphenyl)(2-methoxyphenyl)methanone]
IC50 (BACE1; [2]): < 100 nM
IC50 ([1]; Homo sapiens, HEK293, 24 h): < 100 nM

Cc1cccc(C(=O)OC2CCCC2)c1-c1ccc2nc(N)c(N3CCOCC3)cc2c1 [Example 19, cyclopentyl 2-(2-amino-3-morpholinoquinolin-6-yl)-3-methylbenzoate]
IC50 (BACE1; [2]): < 100 nM
IC50 ([1]; Homo sapiens, HEK293, 24 h): 100 to 500 nM

Cc1cccc(C(=O)c2ncccc2Cl)c1-c1ccc2nc(N)c(N3CCOCC3)cc2c1 [Example 159, (2-(2-amino-3-morpholinoquinolin-6-yl)-3-methylphenyl)(3-chloropyridin-2-yl)methanone]
IC50 (BACE1; [2]): < 100 nM
IC50 ([1]; Homo sapiens, HEK293, 24 h): 501 to 1000 nM

CO/N=C(/c1ccccc1)c1cccc(C)c1-c1ccc2nc(N)c(N3CCOCC3)cc2c1 [Example 191, (Z)-(2-(2-amino-3-morpholinoquinolin-6-yl)-3-methylphenyl)(phenyl)methanone O-methyl oxime]
IC50 (BACE1; [2]): < 100 nM
IC50 ([1]; Homo sapiens, HEK293, 24 h): 1010 to 5000 nM

Nc1nc2ccc(-c3ccc(Cl)cc3C(=O)N3CCCC3)cc2cc1N1CCOCC1 [Example 147, (2-(2-amino-3-morpholinoquinolin-6-yl)-5-chlorophenyl)(pyrrolidin-1-yl)methanone]
IC50 (BACE1; [2]): 100 to 500 nM
IC50 ([1]; Homo sapiens, HEK293, 24 h): 1010 to 5000 nM

Cc1cccc(C(=O)N2CCC(F)CC2)c1-c1ccc2nc(N)c(N3CCOCC3)cc2c1 [Example 95, (2-(2-amino-3-morpholinoquinolin-6-yl)-3-methylphenyl)(4-fluoropiperidin-1-yl)methanone]
IC50 (BACE1; [2]): < 100 nM
IC50 ([1]; Homo sapiens, HEK293, 24 h): 1010 to 5000 nM

COCCC1CN(c2cc3cc(-c4c(C)cccc4C(=O)N4CCCC4)ccc3nc2N)CCO1 (stereo not drawn) [Example 214, (2-(2-amino-3-(2-(2-methoxyethyl)morpholino)quinolin-6-yl)-3-methylphenyl)(pyrrolidin-1-yl)methanone]
IC50 (BACE1; [2]): < 100 nM
IC50 ([1]; Homo sapiens, HEK293, 24 h): 100 to 500 nM
